The target in assay [1] is T1, first (BD1: amino acids K57-E168) bromodomain of BRD4 (Homo sapiens, UniProt O60885).
T1 construct: His-tagged first (BD1: amino acids K57-E168)
The assay can be described thus: TR-FRET bromodomain binding assay, BRD4 BD1. As to conditions: TR-FRET assay protocol (A-G, compound concentration range); Ki calculated from IC50, probe Kd and probe concentration; read-out: TR-FRET Binding Ki: BRD4 (BDI_K57-E168). The procedure, abridged: (§1)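 His-tagged BRD4 BD1 (K57-E168) or BD2 ([…]) displacing an Alexa647-labelled BET-inhibitor probe in 20 mM sodium phosphate pH 6.0, 50 mM NaCl, 1 mM EDTA, 0.01% Triton X-100, 1 mM DTT.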

Assay [2] concerns the target T2, second (BD2: amino acids E352-E168) bromodomain of BRD4 (Homo sapiens, UniProt O60885).
T2 construct: protocol
Put plainly: TR-FRET bromodomain binding assay, BRD4 BD2. As to conditions: TR-FRET assay protocol (A-G, compound concentration range); Ki calculated from IC50, probe Kd and probe concentration; read-out: TR-FRET Binding Ki: BRD4 (BDII_E352-M457). The method, boiled down:
as §1

Here are results for 24 compounds from patent publication US9561231B2 (AbbVie Inc., priority 2012, dated 2017).

Take `CC(C)Oc1ncccc1-c1cc(=O)n(C)nc1-c1ccccc1Oc1ccccc1` [Example 130, 2-methyl-6-(2-phenoxyphenyl)-5-[2-(propan-2-yloxy)pyridin-3-yl]pyridazin-3(2H)-one]: the inhibitory constant (Ki) (as a rule, a measure of affinity in units of concentration, obtained from inhibition or displacement) in assay [1] was > 13 µM; in assay [2], 17.1 µM.

Turning to `Cn1nc(-c2ccccc2Oc2ccccc2)c(-c2ccc3scnc3c2)cc1=O` [Example 131, 5-(1,3-benzothiazol-5-yl)-2-methyl-6-(2-phenoxyphenyl)pyridazin-3(2H)-one], the Ki is 6.39 µM in assay [1] and 0.41 µM in assay [2].

As to `CC(=O)c1ccc(F)c(-c2cc(=O)n(C)nc2-c2ccccc2Oc2ccccc2)c1` [Example 132, 5-(5-acetyl-2-fluorophenyl)-2-methyl-6-(2-phenoxyphenyl)pyridazin-3(2H)-one], the figures for the Ki in assay [1] and in assay [2] were > 13 µM and 8.05 µM, respectively.

For `Cn1nc(-c2ccccc2Oc2ccccc2)c(-c2ccc3c(c2)OCCO3)cc1=O` [Example 133, 5-(2,3-dihydro-1,4-benzodioxin-6-yl)-2-methyl-6-(2-phenoxyphenyl)pyridazin-3(2H)-one], the inhibitory constant (Ki) in assay [1] was 0.782 µM; in assay [2], 0.159 µM.

With `COC(C)c1cccc(-c2cc(=O)n(C)nc2-c2ccccc2Oc2ccccc2)c1` (stereo not drawn) [Example 134, 5-[3-(1-methoxyethyl)phenyl]-2-methyl-6-(2-phenoxyphenyl)pyridazin-3(2H)-one], the Ki was 4.32 µM in assay [1] and 4.06 µM in assay [2].

For `COC(C)c1ccc(-c2cc(=O)n(C)nc2-c2ccccc2Oc2ccccc2)cc1` (stereo not drawn) [Example 135, 5-[4-(1-methoxyethyl)phenyl]-2-methyl-6-(2-phenoxyphenyl)pyridazin-3(2H)-one], the Ki in assay [1] is 0.604 µM; in assay [2], 0.411 µM.

Consider `CCOc1cccc(-c2cc(=O)n(C)nc2-c2ccccc2Oc2ccccc2)c1F` [Example 136, 5-(3-ethoxy-2-fluorophenyl)-2-methyl-6-(2-phenoxyphenyl)pyridazin-3(2H)-one], for which the inhibitory constant (Ki) in assay [1] is 4.33 µM; in assay [2] it was 6.7 µM.

`Cn1nc(-c2ccccc2Oc2ccccc2)c(-c2ccc3nsnc3c2)cc1=O` [Example 137, 5-(2,1,3-benzothiadiazol-5-yl)-2-methyl-6-(2-phenoxyphenyl)pyridazin-3(2H)-one]: the Ki in assay [1] is 3.26 µM; in assay [2], 1.17 µM.

Regarding `Cn1nc(-c2ccccc2Oc2ccccc2)c(-c2cncc(NCc3ccccc3)c2)cc1=O` [Example 138, 5-[5-(benzylamino)pyridin-3-yl]-2-methyl-6-(2-phenoxyphenyl)pyridazin-3(2H)-one], the Ki was 7.43 µM in assay [1] and 3.18 µM in assay [2].

`Cn1nc(-c2ccccc2Oc2ccccc2)c(-c2cccc(N3CCOCC3)c2)cc1=O` [Example 139, 2-methyl-5-[3-(morpholin-4-yl)phenyl]-6-(2-phenoxyphenyl)pyridazin-3(2H)-one]: the results for the Ki in assay [1] and in assay [2] were > 1.52 µM and 0.879 µM, respectively.

On to `Cn1nc(-c2ccccc2Oc2ccccc2)c(-c2ccc(OCC(F)(F)F)nc2)cc1=O` [Example 140, 2-methyl-6-(2-phenoxyphenyl)-5-[6-(2,2,2-trifluoroethoxy)pyridin-3-yl]pyridazin-3(2H)-one], for which the results for the inhibition constant Ki in assay [1] and in assay [2] were > 13 µM and 8.21 µM, respectively.

For `Cn1nc(-c2ccccc2Oc2ccccc2)c(-c2cccc(CN3CCOCC3)c2)cc1=O` [Example 141, 2-methyl-5-[3-(morpholin-4-ylmethyl)phenyl]-6-(2-phenoxyphenyl)pyridazin-3(2H)-one], the inhibitory constant (Ki) in assay [1] was 0.526 µM; in assay [2], 0.297 µM.

For the compound `Cn1nc(-c2ccccc2Oc2ccccc2)c(-c2cccc(C(=O)N3CCSCC3)c2)cc1=O` [Example 142, 2-methyl-6-(2-phenoxyphenyl)-5-[3-(thiomorpholin-4-ylcarbonyl)phenyl]pyridazin-3(2H)-one], the inhibitory constant (Ki) was 2.4 µM in assay [1] and 1.73 µM in assay [2].

For `Cn1nc(-c2ccccc2Oc2ccccc2)c(-c2cncc(NC3CCCC3)c2)cc1=O` [Example 143, 5-[5-(cyclopentylamino)pyridin-3-yl]-2-methyl-6-(2-phenoxyphenyl)pyridazin-3(2H)-one], the values for the inhibitory constant (Ki) in assay [1] and in assay [2] were 3.2 µM and 5.47 µM, respectively.

Regarding `Cn1nc(-c2ccccc2Oc2ccccc2)c(-c2cncc(C(=O)NC3CC3)c2)cc1=O` [Example 144, N-cyclopropyl-5-[1-methyl-6-oxo-3-(2-phenoxyphenyl)-1,6-dihydropyridazin-4-yl]pyridine-3-carboxamide], the inhibitory constant (Ki) in assay [1] is > 2.38 µM; in assay [2], > 3.37 µM.

For the compound `Cn1nc(-c2ccccc2Oc2ccccc2)c(-c2cncc(C(=O)NC3CCCC3)c2)cc1=O` [Example 145, N-cyclopentyl-5-[1-methyl-6-oxo-3-(2-phenoxyphenyl)-1,6-dihydropyridazin-4-yl]pyridine-3-carboxamide], the values for the inhibition constant (Ki) in assay [1] and in assay [2] were > 13 µM and 10.2 µM, respectively.

Take `CCN(CC)S(=O)(=O)c1cccc(-c2cc(=O)n(C)nc2-c2ccccc2Oc2ccccc2)c1` [Example 146, N,N-diethyl-3-[1-methyl-6-oxo-3-(2-phenoxyphenyl)-1,6-dihydropyridazin-4-yl]benzenesulfonamide]: the inhibitory constant (Ki) in assay [1] is > 13 µM; in assay [2], 12.2 µM.

For the compound `Cn1nc(-c2ccccc2Oc2ccccc2)c(-c2ccc(C(=O)N3CCOCC3)cc2)cc1=O` [Example 147, 2-methyl-5-[4-(morpholin-4-ylcarbonyl)phenyl]-6-(2-phenoxyphenyl)pyridazin-3(2H)-one], the inhibition constant Ki in assay [1] is 0.26 µM; in assay [2], 0.168 µM.

With `CN(C(=O)c1cccc(-c2cc(=O)n(C)nc2-c2ccccc2Oc2ccccc2)c1)C1CCCCC1` [Example 148, N-cyclohexyl-N-methyl-3-[1-methyl-6-oxo-3-(2-phenoxyphenyl)-1,6-dihydropyridazin-4-yl]benzamide], the Ki in assay [1] is > 13 µM; in assay [2], 19.7 µM.

In the case of `CN(C)CCCNC(=O)c1ccc(-c2cc(=O)n(C)nc2-c2ccccc2Oc2ccccc2)cc1` [Example 150, N-[3-(dimethylamino)propyl]-4-[1-methyl-6-oxo-3-(2-phenoxyphenyl)-1,6-dihydropyridazin-4-yl]benzamide], the figures for the Ki in assay [1] and in assay [2] were 0.471 µM and 0.411 µM, respectively.

Consider `Cn1nc(-c2ccccc2Oc2ccccc2)c(-c2ccc(N3CCNCC3)nc2)cc1=O` [Example 151, 2-methyl-6-(2-phenoxyphenyl)-5-[6-(piperazin-1-yl)pyridin-3-yl]pyridazin-3(2H)-one], for which the figures for the Ki in assay [1] and in assay [2] were 0.4 µM and 0.258 µM, respectively.

As for `CN(C)C(=O)c1cc(F)cc(-c2cc(=O)n(C)nc2-c2ccccc2Oc2ccccc2)c1` [Example 152, 3-fluoro-N,N-dimethyl-5-[1-methyl-6-oxo-3-(2-phenoxyphenyl)-1,6-dihydropyridazin-4-yl]benzamide], the inhibition constant (Ki) in assay [1] was 6.62 µM; in assay [2], 7.27 µM.

Take `Cn1nc(-c2ccccc2Oc2ccccc2)c(-c2ccnc(N3CCOCC3)c2)cc1=O` [Example 153, 2-methyl-5-[2-(morpholin-4-yl)pyridin-4-yl]-6-(2-phenoxyphenyl)pyridazin-3(2H)-one]: the inhibition constant Ki in assay [1] was 5.96 µM; in assay [2] it was 3.09 µM.

Turning to `CC1CCN(C(=O)c2cccc(-c3cc(=O)n(C)nc3-c3ccccc3Oc3ccccc3)c2)CC1` [Example 154, 2-methyl-5-{3-[(4-methylpiperidin-1-yl)carbonyl]phenyl}-6-(2-phenoxyphenyl)pyridazin-3(2H)-one], the inhibitory constant (Ki) is 11.9 µM in assay [1] and 5.94 µM in assay [2].
